From patent US9661854B2, “Molecules having pesticidal utility, and intermediates, compositions, and processes, related thereto” (Dow AgroSciences LLC, priority 2015, dated 2017) come the findings set out here.

Experiment [1] has as its system Cabbage Looper (Trichoplusia ni, TRIPNI). In words: Bioassay on Cabbage Looper (CL), 128-well diet tray assay. Format: in vivo. To be noted: 168 h, 50 μg/cm^2 on artificial diet, second instar larvae, 25° C., five to seven days, average of eight wells, read-out: CL % Control (or Mortality) rating. The gist of the method:
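Second-instar larvae (one to five per well) placed on artificial diet treated with 50 μg/cm^2 test molecule in 90:10 acetone-water, dried; eight wells per molecule. Held at 25° C., 14:10 light-dark, for five to seven days. Percent mortality scored per well and averaged over the eight wells.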

The subject of experiment [2] is Beet Armyworm (Spodoptera exigua, LAPHEG). The experiment can be described thus: Bioassay on Beet Armyworm (BAW), 128-well diet tray assay. To be noted: 168 h, 50 μg/cm^2 on artificial diet, second instar larvae, 25° C., five to seven days, average of eight wells, read-out: BAW % Control (or Mortality) rating. Format: in vivo. The gist of the method:
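Second-instar larvae, one to five per well, fed artificial diet surface-treated with 50 μg/cm^2 test molecule in 90:10 acetone-water, dried before infestation; eight wells per molecule. Held at 25 °C, 14:10 light-dark for five to seven days; percent mortality averaged over wells.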

Molecules are shown by their SMILES.

By mortality is commonly meant the percentage killed.

With `Cc1ccc(F)c(N2C(=O)CS/C2=N\C(=O)Nc2ccc(CCc3ncn(-c4ccc(OC(F)(F)F)cc4)n3)cc2)c1` [F3, (Z)-1-(3-(2-Fluoro-5-methylphenyl)-4-oxothiazolidin-2-ylidene)-3-(4-(2-(1-(4-(trifluoromethoxy)phenyl)-1H-1,2,4-triazol-3-yl)ethyl)phenyl)urea], the mortality at 50 µg/cm2 in experiment [1] and in experiment [2] was 50 to 100% each time.
Regarding `Cc1ccc(C(C)C)c(N2C(=O)CS/C2=N\C(=O)Nc2ccc(/C=C/c3ncn(-c4ccc(OC(F)(F)F)cc4)n3)cc2C(F)(F)F)c1` [F62, 1-((Z)-3-(2-isopropyl-5-methylphenyl)-4-oxothiazolidin-2-ylidene)-3-(4-((E)-2-(1-(4-(trifluoromethoxy)phenyl)-1H-1,2,4-triazol-3-yl)vinyl)-2-(trifluoromethyl)phenyl)urea], the mortality at 50 µg/cm2 in experiment [1] and in experiment [2] was 50 to 100% in each case.
With `CCCc1ccc(C)cc1N1C(=O)CS/C1=N\C(=O)Nc1ccc(CCc2ncn(-c3ccc(OC(F)(F)F)cc3)n2)cc1` [F7, (Z)-1-(3-(5-Methyl-2-propylphenyl)-4-oxothiazolidin-2-ylidene)-3-(4-(2-(1-(4-(trifluoromethoxy)phenyl)-1H-1,2,4-triazol-3-yl)ethyl)phenyl)urea], the mortality at 50 µg/cm2 in experiment [1] and in experiment [2] was 50 to 100% in each case.
Regarding `CCC(C)Oc1ccc(C)cc1N1C(=O)CS/C1=N\C(=O)Nc1ccc(/C=C/c2ncn(-c3ccc(OC(F)(F)F)cc3)n2)cc1` (centres unmarked) [F48, 1-((Z)-3-(2-(sec-Butoxy)-5-methylphenyl)-4-oxothiazolidin-2-ylidene)-3-(4-((E)-2-(1-(4-(trifluoromethoxy)phenyl)-1H-1,2,4-triazol-3-yl)vinyl)phenyl)urea], the mortality at 50 µg/cm2 in experiment [1] and in experiment [2] was 50 to 100% each time.
Turning to `O=C(/N=C1\SCC(=O)N1C1CCCCC1)Nc1ccc(CCc2ncn(-c3ccc(OC(F)(F)F)cc3)n2)cc1` [F35, (Z)-1-(3-Cyclohexyl-4-oxothiazolidin-2-ylidene)-3-(4-(2-(1-(4-(trifluoromethoxy)phenyl)-1H-1,2,4-triazol-3-yl)ethyl)phenyl)urea], the mortality at 50 µg/cm2 in experiment [1] and in experiment [2] was 50 to 100% each time.
As for `Cc1ccc(C(C)C)c(N2C(=O)CS/C2=N\C(=O)Nc2ccc(CCc3ncn(-c4ccc(OC(F)(F)F)cc4)n3)cc2Cl)c1` [F18, (Z)-1-(2-Chloro-4-(2-(1-(4-(trifluoromethoxy)phenyl)-1H-1,2,4-triazol-3-yl)ethyl)phenyl)-3-(3-(2-isopropyl-5-methylphenyl)-4-oxothiazolidin-2-ylidene)urea], the mortality at 50 µg/cm2 in experiment [1] and in experiment [2] was 50 to 100% each time.
`COCc1ccc(C)cc1N1C(=O)CS/C1=N\C(=O)Nc1ccc(/C=C/c2ncn(-c3ccc(OC(F)(F)F)cc3)n2)cc1` [F53, 1-((Z)-3-(2-(Methoxymethyl)-5-methylphenyl)-4-oxothiazolidin-2-ylidene)-3-(4-((E)-2-(1-(4-(trifluoromethoxy)phenyl)-1H-1,2,4-triazol-3-yl)vinyl)phenyl)urea]: the mortality at 50 µg/cm2 in experiment [1] and in experiment [2] was 50 to 100% in each case.
As for `Cc1ccc(C(C)C)c(N2C(=O)CS/C2=N\C(=O)Nc2ccc(/C=C/c3ncn(-c4ccc(OC(F)(F)F)cc4)n3)c(F)c2)c1` [F61, 1-(3-fluoro-4-((E)-2-(1-(4-(trifluoromethoxy)phenyl)-1H-1,2,4-triazol-3-yl)vinyl)phenyl)-3-((Z)-3-(2-isopropyl-5-methylphenyl)-4-oxothiazolidin-2-ylidene)urea], the mortality at 50 µg/cm2 in experiment [1] and in experiment [2] was 50 to 100% throughout.
In the case of `Cc1ccc(C(C)C)c(N2C(=O)CS/C2=N\C(=O)Nc2ccc(/C=C/c3ncn(-c4ccc(OC(F)(F)F)cn4)n3)cn2)c1` [F71, 1-((Z)-3-(2-isopropyl-5-methylphenyl)-4-oxothiazolidin-2-ylidene)-3-(5-((E)-2-(1-(5-(trifluoromethoxy)pyridin-2-yl)-1H-1,2,4-triazol-3-yl)vinyl)pyridin-2-yl)urea], the mortality at 50 µg/cm2 in experiment [1] and in experiment [2] was 50 to 100% throughout.
Turning to `Cc1ccc(OC(C)(C)C)c(N2C(=O)CS/C2=N\C(=O)Nc2ccc(/C=C/c3ncn(-c4ccc(OC(F)(F)F)cc4)n3)cc2)c1` [F52, 1-((Z)-3-(2-(tert-Butoxy)-5-methylphenyl)-4-oxothiazolidin-2-ylidene)-3-(4-((E)-2-(1-(4-(trifluoromethoxy)phenyl)-1H-1,2,4-triazol-3-yl)vinyl)phenyl)urea], the mortality at 50 µg/cm2 in experiment [1] and in experiment [2] was 50 to 100% in each case.
With `COc1cc(/C=C/c2ncn(-c3ccc(OC(F)(F)F)cc3)n2)ccc1NC(=O)/N=C1\SCC(=O)N1c1cc(C)ccc1C(C)C` [F58, 1-((Z)-3-(2-isopropyl-5-methylphenyl)-4-oxothiazolidin-2-ylidene)-3-(2-methoxy-4-((E)-2-(1-(4-(trifluoromethoxy)phenyl)-1H-1,2,4-triazol-3-yl)vinyl)phenyl)urea], the mortality at 50 µg/cm2 in experiment [1] and in experiment [2] was 50 to 100% throughout.
For the molecule `Cc1ccc(C(C)C)c(N2C(=O)CS/C2=N\C(=O)Nc2ccc(CCc3ncn(-c4ccc(OC(F)(F)F)cc4)n3)c(C)c2)c1` [F2, (Z)-1-(3-(2-Isopropyl-5-methylphenyl)-4-oxothiazolidin-2-ylidene)-3-(3-methyl-4-(2-(1-(4-(trifluoromethoxy)phenyl)-1H-1,2,4-triazol-3-yl)ethyl)phenyl)urea], the mortality at 50 µg/cm2 in experiment [1] and in experiment [2] was 50 to 100% throughout.
Turning to `COC(=O)c1cc(CCc2ncn(-c3ccc(OC(F)(F)F)cc3)n2)ccc1NC(=O)/N=C1\SCC(=O)N1c1cc(C)ccc1C(C)C` [F16, Methyl (Z)-2-(3-(3-(2-isopropyl-5-methylphenyl)-4-oxothiazolidin-2-ylidene)ureido)-5-(2-(1-(4-(trifluoromethoxy)phenyl)-1H-1,2,4-triazol-3-yl)ethyl)benzoate], the mortality at 50 µg/cm2 in experiment [1] and in experiment [2] was 50 to 100% each time.
As to `Cc1ccc(C(C)C)c(N2C(=O)CS/C2=N\C(=O)Nc2ccc(CCc3ncn(-c4ccc(OC(F)(F)F)cc4)n3)cc2F)c1` [F17, (Z)-1-(2-Fluoro-4-(2-(1-(4-(trifluoromethoxy)phenyl)-1H-1,2,4-triazol-3-yl)ethyl)phenyl)-3-(3-(2-isopropyl-5-methylphenyl)-4-oxothiazolidin-2-ylidene)urea], the mortality at 50 µg/cm2 in experiment [1] and in experiment [2] was 50 to 100% each time.
Consider `Cc1ccc(C(C)C)c(N2C(=O)CS/C2=N\C(=O)Nc2ccc(CCc3ncn(-c4ccc(OC(F)(F)F)cc4)n3)cc2C(F)(F)F)c1` [F25, (Z)-1-(3-(2-Isopropyl-5-methylphenyl)-4-oxothiazolidin-2-ylidene)-3-(4-(2-(1-(4-(trifluoromethoxy)phenyl)-1H-1,2,4-triazol-3-yl)ethyl)-2-(trifluoromethyl)phenyl)urea], for which the mortality at 50 µg/cm2 in experiment [1] and in experiment [2] was 50 to 100% each time.
Regarding `Cc1ccc(C2CC2(F)F)c(N2C(=O)CS/C2=N\C(=O)Nc2ccc(CCc3ncn(-c4ccc(OC(F)(F)F)cc4)n3)cc2F)c1` (centres unmarked) [F30, (Z)-1-(3-(2-(2,2-Difluorocyclopropyl)-5-methylphenyl)-4-oxothiazolidin-2-ylidene)-3-(2-fluoro-4-(2-(1-(4-(trifluoromethoxy)phenyl)-1H-1,2,4-triazol-3-yl)ethyl)phenyl)urea], the mortality at 50 µg/cm2 in experiment [1] and in experiment [2] was 50 to 100% throughout.
